Our source for the Kd and IC50 values is patent US20220162182A1, “KINASE INHIBITOR COMPOUNDS AND COMPOSITIONS AND METHODS OF USE” (ICAHN SCHOOL OF MEDICINE AT MOUNT SINAI, priority 2018, published 2022).

Molecules are shown by their SMILES. Several values for one entry are separate records, joined by “and”; a condition that tells them apart may be missing. Equal values may be shown once. Where a name gives a salt, the structure may show the parent alone.

The first assay has as its target T1, DYRK1A (Homo sapiens, UniProt Q13627).
T1 construct: purchased DiscoverX
As to the kind of experiment: KINOMEscan DYRK1A binding assay (DiscoverX), Kd determination. As to conditions: eleven serial three fold dilutions, highest concentration 60 μM, several values in a cell = repeat determinations. As for the experimental part: Compounds were tested for DYRK1A binding activity at DiscoverX. DiscoverX uses proprietary KINOMEscan® Assay (Fabian et al., “A Small Molecule-kinase Interaction Map for Clinical Kinase Inhibitors,” Nat. Biotechnol. 23(3):329-336 (2005), which is hereby incorporated by reference in its entirety). Compounds were screened for DYRK1A activity at a single concentration of 3 μM in duplicates. Similarly, the dissociation constant Kd of the hit compounds from the initial screening was determined at DiscoverX using their proprietary KINOMEscan® Assay. Kd values are determined using eleven serial three fold dilutions with the highest concentration of 60 μM.
For the compound `O=c1[nH]c2ccc(-c3ccc(NCc4ccccc4)nc3)cc2[nH]1` [Compound 11a, 5-(6-(Benzylamino)pyridin-3-yl)-1H-benzo[d]imidazol-2(3H)-one], binding was characterised by a dissociation constant (Kd) of 300 nM. For the compound `O=c1[nH]c2ccc(-c3ccc(NCc4ccc(F)cc4)nc3)cc2[nH]1` [Compound 11b, 5-(6-((4-Fluorobenzyl)amino)pyridin-3-yl)-1H-benzo[d]imidazol-2(3H)-one], the Kd was 580 nM and 510 nM. Consider `O=c1[nH]c2ccc(-c3ccc(NCc4ccc(F)cc4)cn3)cc2[nH]1` [Compound 11c, 5-(5-((4-Fluorobenzyl)amino)pyridin-2-yl)-1H-benzo[d]imidazol-2(3H)-one], for which binding was characterised by a dissociation constant (Kd) of 6000 nM. Consider `Cn1c(=O)[nH]c2ccc(-c3cncc(NCc4ccccc4)c3)cc21` [Compound 12b, 6-(5-(Benzylamino)pyridin-3-yl)-1-methyl-1H-benzo[d]imidazol-2(3H)-one], for which the Kd was 0.82 nM and 1.6 nM. On to `Cn1c(=O)[nH]c2cc(-c3cncc(NCc4ccccc4)c3)ccc21` [Compound 12c, 5-(5-(Benzylamino)pyridin-3-yl)-1-methyl-1H-benzo[d]imidazol-2(3H)-one], for which binding was characterised by a dissociation constant (Kd) of 2000 nM. Consider `O=c1[nH]c2ccc(-c3cncc(NCc4ccccc4)c3)cc2[nH]1` [Compound 13a, 5-(5-(Benzylamino)pyridin-3-yl)-1H-benzo[d]imidazol-2(3H)-one], for which the Kd was 2.3 nM and 2.9 nM and 1.1 nM. As for `O=c1[nH]c2ccc(-c3cncc(NCc4ccc(F)cc4)c3)cc2[nH]1` [Compound 13b, 5-(5-((4-Fluorobenzyl)amino)pyridin-3-yl)-1H-benzo[d]imidazol-2(3H)-one], the Kd is 2.9 nM and 1.8 nM.

The target of a further assay is T2, DYRK1/DYRK1A (Homo sapiens, UniProt Q13627).
T2 construct: purchased Reaction Biology Corp
Nature of the assay: DYRK1/DYRK1A IC50 assay (Reaction Biology Corp.). Particulars: DYRK1/DYRK1A assay from Reaction Biology Corp. Type of assay: biochemical.
`O=c1[nH]c2ccc(-c3cncc(NCc4ccco4)c3)cc2[nH]1` [Compound 49a, 5-(5-((Furan-2-ylmethyl)amino)pyridin-3-yl)-1H-benzo[d]imidazol-2(3H)-one]: the IC50 stood at 1.74 nM. In the case of `O=c1[nH]c2ccc(-c3cncc(NCc4cccs4)c3)cc2[nH]1` [Compound 49b, 5-(5-((Thiophen-2-ylmethyl)amino)pyridin-3-yl)-1H-benzo[d]imidazol-2(3H)-one], the half-inhibitory concentration (IC50) worked out at 0.48 nM. Compound `O=c1[nH]c2ccc(-c3cncc(NCc4ncc[nH]4)c3)cc2[nH]1` [Compound 49c, 5-(5-(((1H-Imidazol-2-yl)methyl)amino)pyridin-3-yl)-1H-benzo[d]imidazol-2(3H)-one] had an IC50 of 4.91 nM. This IC50 lies about 10-fold higher than the previous one. The compound `O=c1[nH]c2ccc(-c3cncc(NCc4cc[nH]n4)c3)cc2[nH]1` [Compound 49e, 5-(5-(((1H-Pyrazol-3-yl)methyl)amino)pyridin-3-yl)-1H-benzo[d]imidazol-2(3H)-one] returned an IC50 of 3.27 nM.

On to `O=c1[nH]c2ccc(-c3cncc(NCc4ncco4)c3)cc2[nH]1` [Compound 49f, 5-(5-((Oxazol-2-ylmethyl)amino)pyridin-3-yl)-1H-benzo[d]imidazol-2(3H)-one], for which the IC50 came out at 4.03 nM. On to `O=c1[nH]c2ccc(-c3cncc(CNc4ccccc4F)c3)cc2[nH]1` [Compound 52a, 5-(5-(((2-Fluorophenyl)amino)methyl)pyridin-3-yl)-1H-benzo[d]imidazol-2(3H)-one], for which it took 3.67 nM to reach half-maximal inhibition (IC50). This IC50 and that of the compound before are within 1.5-fold of each other. With `O=c1[nH]c2ccc(-c3cncc(CNc4cccc(F)c4)c3)cc2[nH]1` [Compound 52b, 5-(5-(((3-Fluorophenyl)amino)methyl)pyridin-3-yl)-1H-benzo[d]imidazol-2(3H)-one], the IC50 came out at 1.31 nM. `O=c1[nH]c2ccc(-c3cncc(CNc4ccc(F)cc4)c3)cc2[nH]1` [Compound 52c, 5-(5-(((4-Fluorophenyl)amino)methyl)pyridin-3-yl)-1H-benzo[d]imidazol-2(3H)-one] showed an IC50 of 6.11 nM. Still for that read-out and setting: the result for `O=c1[nH]c2ccc(-c3cncc(CNc4ccccc4Cl)c3)cc2[nH]1` [Compound 52d, 5-(5-(((2-Chlorophenyl)amino)methyl)pyridin-3-yl)-1H-benzo[d]imidazol-2(3H)-one] reads 5.05 nM; that for `COc1ccccc1NCc1cncc(-c2ccc3[nH]c(=O)[nH]c3c2)c1` [Compound 52g, 5-(5-(((2-Methoxyphenyl)amino)methyl)pyridin-3-yl)-1H-benzo[d]imidazol-2(3H)-one], 2.72 nM. `COc1cccc(NCc2cncc(-c3ccc4[nH]c(=O)[nH]c4c3)c2)c1` [Compound 52h, 5-(5-(((3-Methoxyphenyl)amino)methyl)pyridin-3-yl)-1H-benzo[d]imidazol-2(3H)-one]: the IC50 turned out to be 2.26 nM. This IC50 and that of the compound before are within 1.5-fold of each other. In the case of `COc1ccc(NCc2cncc(-c3ccc4[nH]c(=O)[nH]c4c3)c2)cc1` [Compound 52i, 5-(5-(((4-Methoxyphenyl)amino)methyl)pyridin-3-yl)-1H-benzo[d]imidazol-2(3H)-one], the IC50 was found to be 2.2 nM. As for `CCn1c(=O)[nH]c2ccc(-c3cncc(NCc4ccccc4)c3)cc21` [Compound 61a, 6-(5-(Benzylamino)pyridin-3-yl)-1-ethyl-1H-benzo[d]imidazol-2(3H)-one], the IC50 was found to be 1.41 nM. As to `CC(C)n1c(=O)[nH]c2ccc(-c3cncc(NCc4ccccc4)c3)cc21` [Compound 61b, 6-(5-(Benzylamino)pyridin-3-yl)-1-isopropyl-1H-benzo[d]imidazol-2(3H)-one], it took 13.8 nM to reach half-maximal inhibition (IC50). With `O=c1[nH]c2ccc(-c3cncc(NCc4ccccc4)c3)cc2n1C1CC1` [Compound 61c, 6-(5-(Benzylamino)pyridin-3-yl)-1-cyclopropyl-1H-benzo[d]imidazol-2(3H)-one], the IC50 was 3.25 nM. Still for that read-out and setting: the same measure for `O=c1[nH]c2ccc(-c3cncc(NCc4ccccc4)c3)cc2n1C1CCCC1` [Compound 61d, 6-(5-(Benzylamino)pyridin-3-yl)-1-cyclopentyl-1H-benzo[d]imidazol-2(3H)-one]: 24 nM. In the case of `O=c1[nH]c2ccc(-c3cncc(NCc4ccccc4)c3)cc2n1-c1ccccc1` [Compound 61e, 6-(5-(Benzylamino)pyridin-3-yl)-1-phenyl-1H-benzo[d]imidazol-2(3H)-one], half-maximal inhibition (IC50) was put at 3.8 nM. Consider `O=c1[nH]c2ccc(-c3cncc(NCc4ccccc4)c3)cc2n1-c1ccccn1` [Compound 61f, 6-(5-(Benzylamino)pyridin-3-yl)-1-(pyridin-2-yl)-1H-benzo[d]imidazol-2(3H)-one], for which inhibition was half-maximal at 0.52 nM (IC50). In turn, `O=c1[nH]c2ccc(-c3cncc(NCc4ccccc4)c3)cc2n1-c1cccnc1` [Compound 61g, 6-(5-(Benzylamino)pyridin-3-yl)-1-(pyridin-3-yl)-1H-benzo[d]imidazol-2(3H)-one] gave a half-maximal inhibitory concentration (IC50) of 6.47 nM. On the same count and under the same terms, the result for `COCCOc1cccc(-n2c(=O)[nH]c3ccc(-c4cncc(NCc5ccccc5)c4)cc32)c1` [Compound 61j, 6-(5-(Benzylamino)pyridin-3-yl)-1-(3-(2-methoxyethoxy)phenyl)-1H-benzo[d]imidazol-2(3H)-one] reads 3.47 nM; that for `COCCOc1ccc(-n2c(=O)[nH]c3ccc(-c4cncc(NCc5ccccc5)c4)cc32)cc1` [Compound 61k, 6-(5-(Benzylamino)pyridin-3-yl)-1-(4-(2-methoxyethoxy)phenyl)-1H-benzo[d]imidazol-2(3H)-one], 38 nM; that for `CC(C)(C)OC(=O)NCCOCCOc1cccc(-n2c(=O)[nH]c3ccc(-c4cncc(NCc5ccccc5)c4)cc32)c1` [Compound 61m, tert-Butyl (2-(2-(3-(6-(5-(benzylamino)pyridin-3-yl)-2-oxo-2,3-dihydro-1H-benzo[d]imidazol-1-yl)phenoxy)ethoxy)ethyl)carbamate], 42.8 nM. The compound `NCCOc1cccc(-n2c(=O)[nH]c3ccc(-c4cncc(NCc5ccccc5)c4)cc32)c1` [Compound 61n, 1-(3-(2-Aminoethoxy)phenyl)-6-(5-(benzylamino)pyridin-3-yl)-1H-benzo[d]imidazol-2(3H)-one hydrochloride] registered an IC50 of 7.12 nM. Consider `NCCOCCOc1cccc(-n2c(=O)[nH]c3ccc(-c4cncc(NCc5ccccc5)c4)cc32)c1` [Compound 61o, 1-(3-(2-(2-Aminoethoxy)ethoxy)phenyl)-6-(5-(benzylamino)pyridin-3-yl)-1H-benzo[d]imidazol-2(3H)-one hydrochloride], for which the IC50 is 3.9 nM. This IC50 is about 1.8-fold lower than that of the compound before.

In turn, `Cn1c(=O)[nH]c2ccc(-c3cc(NCc4ccccc4)c[n+]([O-])c3)cc21` [Compound 69a, 3-(Benzylamino)-5-(3-methyl-2-oxo-2,3-dihydro-1H-benzo[d]imidazol-5-yl)pyridine 1-oxide] returned an IC50 of 99.9 nM. Compound `O=c1[nH]c2ccc(-c3cc(NCc4ccccc4)c[n+]([O-])c3)cc2[nH]1` [Compound 69b, 3-(Benzylamino)-5-(2-oxo-2,3-dihydro-1H-benzo[d]imidazol-5-yl)pyridine 1-oxide] had an IC50 of 45.2 nM. Consider `C[C@H](Nc1cncc(-c2ccc3[nH]c(=O)n(C)c3c2)c1)c1ccccc1` [Compound 69c], for which the midpoint of inhibition, the IC50, lay at 0.286 nM. Still for that read-out and setting: the same measure for `Cc1ncc(NCc2ccccc2)cc1-c1ccc2[nH]c(=O)[nH]c2c1` [Compound 74a, 5-(5-(Benzylamino)-2-methylpyridin-3-yl)-1H-benzo[d]imidazol-2(3H)-one]: 2100 nM; for `O=c1[nH]c2ccc(-c3ccncc3NCc3ccccc3)cc2[nH]1` [Compound 74b, 5-(3-(Benzylamino)pyridin-4-yl)-1H-benzo[d]imidazol-2(3H)-one]: 8580 nM; for `O=c1[nH]c2ccc(-c3cnccc3NCc3ccccc3)cc2[nH]1` [Compound 74c, 5-(4-(Benzylamino)pyridin-3-yl)-1H-benzo[d]imidazol-2(3H)-one]: 1690 nM. As for `CC(C)(C)OC(=O)NCCOc1cccc(-n2c(=O)[nH]c3ccc(-c4cncc(NCc5ccccc5)c4)cc32)c1` [Compound 611, tert-Butyl (2-(3-(6-(5-(benzylamino)pyridin-3-yl)-2-oxo-2,3-dihydro-1H-benzo[d]imidazol-1-yl)phenoxy)ethyl)carbamate], the IC50 turned out to be 103 nM. Compared with the last compound, the IC50 is about 16-fold lower.
